# Several values for one entry are separate records, joined by “and”; a condition that tells them apart may be missing. Equal entries are not always repeated. Toxic doses and inconclusive results are not listed.
# Tested on: CD2F1 mice, L1210 leukemia ip, survival T/C
# Assay: NCI In Vivo Anticancer Drug Screen. Data for tumor model L1210 Leukemia (intraperitoneal) in CD2F1 (CDF1) mice
# Details: higher = longer survival
# Summary of the method: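 Transplantable tumor in mice; compound-treated vs vehicle-treated groups. Read-out = treated/control ratio of the measured endpoint.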
compound,measurement,setting,value
NC(=S)N/N=C/c1ccc(O)cn1,T/C,"endpoint: mean survival time, dose: 12.5 mg/kg/injection, schedule: Q01DX009 (ip), vehicle: saline",124 % of control
same,T/C,"endpoint: mean survival time, dose: 12.5 mg/kg/injection, schedule: Q03HX024 (ip), vehicle: saline",153 % of control and 163 % of control
same,T/C,"endpoint: mean survival time, dose: 18.8 mg/kg/injection, schedule: Q01DX009 (ip), vehicle: saline with Tween-80",162 % of control
same,T/C,"endpoint: mean survival time, dose: 25.0 mg/kg/injection, schedule: Q01DX009 (ip), vehicle: saline with Tween-80",155 % of control
same,T/C,"endpoint: mean survival time, dose: 25.0 mg/kg/injection, schedule: Q01DX009 (ip), vehicle: saline",150 % of control and 170 % of control
same,T/C,"endpoint: mean survival time, dose: 25.0 mg/kg/injection, schedule: Q01DX009 (oral), vehicle: saline",94 % of control
same,T/C,"endpoint: mean survival time, dose: 25.0 mg/kg/injection, schedule: Q03HX024 (ip), vehicle: saline",168 % of control and 217 % of control
same,T/C,"endpoint: mean survival time, dose: 37.5 mg/kg/injection, schedule: Q01DX009 (ip), vehicle: saline with Tween-80",160 % of control and 166 % of control
same,T/C,"endpoint: mean survival time, dose: 50.0 mg/kg/injection, schedule: Q01DX009 (ip), vehicle: saline with Tween-80",183 % of control
same,T/C,"endpoint: mean survival time, dose: 50.0 mg/kg/injection, schedule: Q01DX009 (ip), vehicle: saline",151 % of control and 154 % of control
same,T/C,"endpoint: mean survival time, dose: 50.0 mg/kg/injection, schedule: Q01DX009 (oral), vehicle: saline",95 % of control
same,T/C,"endpoint: mean survival time, dose: 50.0 mg/kg/injection, schedule: Q03HX024 (ip), vehicle: saline",162 % of control and 211 % of control
same,T/C,"endpoint: mean survival time, dose: 100.0 mg/kg/injection, schedule: Q01DX009 (ip), vehicle: saline with Tween-80",102 % of control
same,T/C,"endpoint: mean survival time, dose: 100.0 mg/kg/injection, schedule: Q01DX009 (oral), vehicle: saline",103 % of control
same,T/C,"endpoint: mean survival time, dose: 150.0 mg/kg/injection, schedule: Q01DX009 (ip), vehicle: saline with Tween-80",103 % of control
same,T/C,"endpoint: mean survival time, dose: 200.0 mg/kg/injection, schedule: Q01DX009 (ip), vehicle: saline",115 % of control and 110 % of control
same,T/C,"endpoint: mean survival time, dose: 200.0 mg/kg/injection, schedule: Q01DX009 (oral), vehicle: saline",102 % of control
same,T/C,"endpoint: mean survival time, dose: 400.0 mg/kg/injection, schedule: Q01DX009 (ip), vehicle: saline",88 % of control and 92 % of control
same,T/C,"endpoint: mean survival time, dose: 400.0 mg/kg/injection, schedule: Q01DX009 (oral), vehicle: saline",114 % of control
same,T/C,"endpoint: median survival time, dose: 20.0 mg/kg/injection, schedule: Q03HX024 (ip), vehicle: saline",152 % of control and 566 % of control
same,T/C,"endpoint: median survival time, dose: 21.8 mg/kg/injection, schedule: Q03HX008 (ip), vehicle: suspension in saline",185 % of control
same,T/C,"endpoint: median survival time, dose: 22.5 mg/kg/injection, schedule: Q03HX024 (ip), vehicle: suspension in saline",214 % of control
same,T/C,"endpoint: median survival time, dose: 32.6 mg/kg/injection, schedule: Q03HX008 (ip), vehicle: suspension in saline",188 % of control
same,T/C,"endpoint: median survival time, dose: 40.0 mg/kg/injection, schedule: Q03HX024 (ip), vehicle: saline",210 % of control and 566 % of control
same,T/C,"endpoint: median survival time, dose: 45.0 mg/kg/injection, schedule: Q03HX024 (ip), vehicle: suspension in saline",238 % of control
same,T/C,"endpoint: median survival time, dose: 45.0 mg/kg/injection, schedule: Q04DX003 (ip), vehicle: suspension in saline",119 % of control
same,T/C,"endpoint: median survival time, dose: 48.6 mg/kg/injection, schedule: Q03HX008 (ip), vehicle: suspension in saline",232 % of control
same,T/C,"endpoint: median survival time, dose: 50.0 mg/kg/injection, schedule: Q03HX024 (ip), vehicle: saline",566 % of control
same,T/C,"endpoint: median survival time, dose: 60.0 mg/kg/injection, schedule: Q03HX024 (ip), vehicle: saline",566 % of control
same,T/C,"endpoint: median survival time, dose: 80.0 mg/kg/injection, schedule: Q03HX024 (ip), vehicle: saline",119 % of control
same,T/C,"endpoint: median survival time, dose: 90.0 mg/kg/injection, schedule: Q04DX003 (ip), vehicle: suspension in saline",122 % of control
same,T/C,"endpoint: median survival time, dose: 108.3 mg/kg/injection, schedule: Q03HX008 (ip), vehicle: suspension in saline",94 % of control
same,T/C,"endpoint: median survival time, dose: 161.6 mg/kg/injection, schedule: Q04DX003 (ip), vehicle: suspension in saline",152 % of control
same,T/C,"endpoint: median survival time, dose: 180.0 mg/kg/injection, schedule: Q03HX024 (ip), vehicle: suspension in saline",110 % of control
same,T/C,"endpoint: median survival time, dose: 241.2 mg/kg/injection, schedule: Q04DX003 (ip), vehicle: suspension in saline",156 % of control
same,T/C,"endpoint: median survival time, dose: 360.0 mg/kg/injection, schedule: Q04DX003 (ip), vehicle: suspension in saline",176 % of control and 211 % of control
same,T/C,"endpoint: median survival time, dose: 537.3 mg/kg/injection, schedule: Q04DX003 (ip), vehicle: suspension in saline",184 % of control
same,T/C,"endpoint: median survival time, dose: 720.0 mg/kg/injection, schedule: Q04DX003 (ip), vehicle: suspension in saline",122 % of control
CC(O)CCC(=O)c1ccoc1 (stereo not given),T/C,"endpoint: median survival time, dose: 0.62 mg/kg/injection, schedule: Q03HX015 (ip), vehicle: saline",109 % of control
same,T/C,"endpoint: median survival time, dose: 1.25 mg/kg/injection, schedule: Q03HX015 (ip), vehicle: saline",117 % of control
same,T/C,"endpoint: median survival time, dose: 2.5 mg/kg/injection, schedule: Q03HX015 (ip), vehicle: saline",106 % of control
same,T/C,"endpoint: median survival time, dose: 3.75 mg/kg/injection, schedule: Q03HX015 (ip), vehicle: saline + alcohol",112 % of control
same,T/C,"endpoint: median survival time, dose: 5.0 mg/kg/injection, schedule: Q03HX015 (ip), vehicle: saline",102 % of control
same,T/C,"endpoint: median survival time, dose: 7.5 mg/kg/injection, schedule: Q03HX015 (ip), vehicle: saline + alcohol",105 % of control
same,T/C,"endpoint: median survival time, dose: 10.0 mg/kg/injection, schedule: Q03HX015 (ip), vehicle: saline",109 % of control
